Laboratory results: PubChem BioAssay AID1259407 (Chemical Carcinogenesis Research Information System (CCRIS), 2018)
The source made the active and inactive calls. How the calls were made is not given here.

Tested on: CCRIS mutagenicity, Ames/micronucleus/aberration tests
Test: CCRIS mutagenicity studies
[1] = Test System: AMES SALMONELLA TYPHIMURIUM, Strain/Indicator: TA98, Metabolic Activation: NONE, Method: PREINCUBATION
[2] = Test System: AMES SALMONELLA TYPHIMURIUM, Strain/Indicator: TA100, Metabolic Activation: NONE, Method: PREINCUBATION

`CC(=O)c1cc(NC(=O)NC(C)(C)C)ccc1OCC(O)CNC(C)(C)C` (stereo unspecified) was tested, and the mutagenic call [1] was “inactive; negative”, the mutagenic call (Test System: AMES SALMONELLA TYPHIMURIUM, Strain/Indicator: TA98, Metabolic Activation: RAT, LIVER, S-9, PHENOBARBITAL AND 5,6-BENZOFLAVONE (10 OR 50 µL/PLATE), Method: PREINCUBATION) was “inactive; negative” and the mutagenic call [2] was “inactive; negative”. The mutagenic call (Test System: AMES SALMONELLA TYPHIMURIUM, Strain/Indicator: TA100, Metabolic Activation: RAT, LIVER, S-9, PHENOBARBITAL AND 5,6-BENZOFLAVONE (10 OR 50 µL/PLATE), Method: PREINCUBATION) was “inactive; negative”, the mutagenic call (Test System: AMES SALMONELLA TYPHIMURIUM, Strain/Indicator: TA1535, Metabolic Activation: NONE, Method: PREINCUBATION) was “inactive; negative” and the mutagenic call (Test System: AMES SALMONELLA TYPHIMURIUM, Strain/Indicator: TA1535, Metabolic Activation: RAT, LIVER, S-9, PHENOBARBITAL AND 5,6-BENZOFLAVONE (10 OR 50 µL/PLATE), Method: PREINCUBATION) was “inactive; negative”. The mutagenic call (Test System: AMES SALMONELLA TYPHIMURIUM, Strain/Indicator: TA1537, Metabolic Activation: NONE, Method: PREINCUBATION) was “inactive; negative”, the mutagenic call (Test System: AMES SALMONELLA TYPHIMURIUM, Strain/Indicator: TA1537, Metabolic Activation: RAT, LIVER, S-9, PHENOBARBITAL AND 5,6-BENZOFLAVONE (10 OR 50 µL/PLATE), Method: PREINCUBATION) was “inactive; negative” and the mutagenic call (Test System: E. COLI, Strain/Indicator: WP2 UVRA, Metabolic Activation: NONE, Method: PREINCUBATION) was “inactive; negative”. For the same molecule, the mutagenic call (Test System: E. COLI, Strain/Indicator: WP2 UVRA, Metabolic Activation: RAT, LIVER, S-9, PHENOBARBITAL AND 5,6-BENZOFLAVONE (10 OR 50 µL/PLATE), Method: PREINCUBATION) was “inactive; negative”.

With `c1ccc2nc3c4ccccc4c4ccccc4c3cc2c1` the mutagenic call (Test System: AMES SALMONELLA TYPHIMURIUM, Strain/Indicator: TA100, Metabolic Activation: RAT, LIVER, S-9, PHENOBARBITAL AND 5,6-BENZOFLAVONE, Method: STANDARD PLATE) was “active; positive”.

`NC(=O)C1(N2CCCCC2)CCN(CCCC(=O)c2ccc(F)cc2)CC1` was tested, and the mutagenic call (End Point: IN VITRO CHROMOSOMAL ABERRATIONS, Test System: HUMAN LYMPHOCYTES, Metabolic Activation: NONE) was “inactive; negative”.

For `Cc1c(O)cc2c(c1O)C(=O)c1cccc(O)c1C2=O`, the mutagenic call [1] was “inactive; negative”, the mutagenic call (Test System: AMES SALMONELLA TYPHIMURIUM, Strain/Indicator: TA98, Metabolic Activation: RAT, LIVER, S-9, PCB, Method: PREINCUBATION) was “active; positive” and the mutagenic call [2] was “inactive; negative”. For the same molecule, the mutagenic call (Test System: AMES SALMONELLA TYPHIMURIUM, Strain/Indicator: TA100, Metabolic Activation: RAT, LIVER, S-9, PCB, Method: PREINCUBATION) was “active; positive”.
